In one assay the target is T1, human Sirt4 (Homo sapiens, UniProt Q9Y6E7).
T1 construct: Human Sirt4_25–314 (Uniprot: Q9Y6E7); made in house
T1 sequence (Q9Y6E7 25-314): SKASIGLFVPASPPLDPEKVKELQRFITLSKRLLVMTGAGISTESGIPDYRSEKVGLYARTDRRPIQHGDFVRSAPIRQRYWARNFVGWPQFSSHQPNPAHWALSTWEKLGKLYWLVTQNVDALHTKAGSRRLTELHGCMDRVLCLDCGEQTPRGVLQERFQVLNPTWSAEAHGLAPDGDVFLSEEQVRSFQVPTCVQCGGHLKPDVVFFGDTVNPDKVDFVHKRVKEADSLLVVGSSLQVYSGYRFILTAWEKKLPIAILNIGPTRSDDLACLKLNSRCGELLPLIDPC
Briefly: Sirt4-dependent deacetylation of acetylated Nnt397-peptide, LC-MS. It counts as biochemical. To be noted: 200 μM, acetyl-lysine substrate. The protocol:
Initial screens were conducted with a high-throughput fluorescence-based assay using the substrate ZMAL (Z-Lys(Acetyl)-AMC) that was synthesized according to published procedures. For this human Sirt1_133–747, human Sirt2_25–389, human Sirt3_101–399 or Sirt3_118–395 were mixed with assay buffer (50 mM Tris/HCl, 137 mM NaCl, 2.7 mM KCl, 1 mM MgCl2, pH 8.0), β-NAD^+ (final assay concentration 500 μM), the substrate ZMAL (final assay concentration 10.5 μM from a 12.6 mM stock solution in DMSO) and the respective inhibitor in DMSO at various concentrations or DMSO as a control (final DMSO concentration 5–20% (v/v)). The mixture was incubated at 37 °C for 4 h, with agitation at 150 r.p.m. […] Then the fluorescence intensity was measured in a microplate reader (BMG Polarstar, λex 390 nm, λem 460 nm). The amount of inhibition was determined with respect to the mixture with only DMSO. IC50 values were determined with Graphpad Prism software using a non-linear regression to fit the dose–response curve. […] Peaks of acetylated and deacetylated substrate were quantified by absorption at 280 nm. […] The samples were then diluted to a peptide concentration of 5 μM with 0.1% (v/v) formic acid and analysed on an EASY-nLCII connected to a LTQ mass spectrometer (Thermo Fisher Scientific). […]

Another assay has as its target T2, human Sirt2 (Homo sapiens, UniProt Q8IXJ6).
T2 sequence (Q8IXJ6 25-389): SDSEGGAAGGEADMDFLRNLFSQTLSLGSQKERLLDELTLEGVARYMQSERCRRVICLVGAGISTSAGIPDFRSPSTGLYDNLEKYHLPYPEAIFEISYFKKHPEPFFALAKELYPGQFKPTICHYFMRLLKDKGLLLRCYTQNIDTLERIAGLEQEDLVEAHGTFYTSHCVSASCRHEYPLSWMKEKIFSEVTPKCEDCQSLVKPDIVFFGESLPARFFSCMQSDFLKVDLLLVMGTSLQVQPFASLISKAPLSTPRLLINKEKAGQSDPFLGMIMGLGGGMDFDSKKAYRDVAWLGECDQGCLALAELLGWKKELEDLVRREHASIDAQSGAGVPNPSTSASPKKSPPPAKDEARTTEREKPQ
Briefly: HPLC-based conversion assay, non-labelled acetyl-lysine α-tubulin peptide. To be noted: SirReal2 100 μM, non-labelled acetyl-lysine oligopeptide.

For another assay, the target named is T3, human Sirt3 (Homo sapiens, UniProt Q9NTG7).
T3 sequence (Q9NTG7 118-395): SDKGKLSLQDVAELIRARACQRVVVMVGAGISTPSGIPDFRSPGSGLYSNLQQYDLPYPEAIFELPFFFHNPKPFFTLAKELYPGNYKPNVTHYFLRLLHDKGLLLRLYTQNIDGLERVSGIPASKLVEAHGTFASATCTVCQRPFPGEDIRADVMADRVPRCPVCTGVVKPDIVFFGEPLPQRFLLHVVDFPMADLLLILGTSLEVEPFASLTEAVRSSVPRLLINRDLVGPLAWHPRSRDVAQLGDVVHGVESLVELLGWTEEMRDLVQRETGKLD
Described as above. To be noted: 100 μM, acetyl-lysine substrate.

The next assay has as its target T4, human Sirt5 (Homo sapiens, UniProt Q9NXA8).
T4 construct: human Sirt5_34–302 (Uniprot: Q9NXA8); made in house
T4 sequence (Q9NXA8 34-302): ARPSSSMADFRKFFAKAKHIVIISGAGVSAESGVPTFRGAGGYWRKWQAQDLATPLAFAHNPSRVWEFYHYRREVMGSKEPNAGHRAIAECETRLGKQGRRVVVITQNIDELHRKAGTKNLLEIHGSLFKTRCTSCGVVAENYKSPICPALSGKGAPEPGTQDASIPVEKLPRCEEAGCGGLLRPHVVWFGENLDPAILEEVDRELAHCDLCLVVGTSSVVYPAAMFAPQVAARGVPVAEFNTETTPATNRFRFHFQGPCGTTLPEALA
Briefly: HPLC-based assay, non-labelled succinyl-lysine peptide. The class given is biochemical. The following applies: 200 μM, succinyl-lysine substrate.

This is an account of results in paper PMC4339887, “Selective Sirt2 inhibition by ligand-induced rearrangement of the active site” (Nature Communications, 2015).

Turning to `Cc1cc(C)nc(SCC(=O)Nc2ncc(Cc3cccc4ccccc34)s2)n1` [SirReal2], the “effect on activity of Sirt4” value at human Sirt4 is “very little effect”. Further, the “activity of Sirt2” value at human Sirt2 is recorded as “substantially reduced”. On human Sirt3, the “effect on activity of Sirt3” value is recorded as “very little effect”. In addition, the “effect on activity of Sirt5” value at human Sirt5 is listed as “very little effect”.
